In data set [1] the test system is malarial strain TM90-C2B (mefloquine, chloroquine, atovaquone, and pyrimethamine-resistant). The data set is described as follows: microbe, parasite or virus in culture. The class given is cell-based, P. falciparum. The note with it: for RI: RI = EC50 TM90-C2B/EC50 W2. The text has this:
Ideally, the RI of a compound should lie between 0.3 and 3.0 in order to avoid rapidly inducing resistance in the parasite. […]

Data set [2] concerns malarial strain W2 (pyrimethamine and chloroquine-resistant). Briefly: in vitro antimalarial activity against multidrug resistant strain W2. In kind it is cell-based, P. falciparum.
The test system of another data set is J774 mammalian cells. The data set is described as follows: cytotoxicity to J774 cells. The class given is cell-based. The note with it: Mus musculus. As for the experimental part: This allowed a simplified method for comparing the different assays being simultaneously run. Additionally, each compound was also tested for cytotoxicity using mammalian J774 cell lines in a 96-well plate format.^12-14, 16

Data set [3] relates to P. berghei sporozoites expressing luciferase. Briefly: in vitro liver stage activity, luciferase sporozoites infecting HEPG2 hepatoma cells. The class given is cell-based. The settings on record: HEPG2 cells.
The nature of data set [4]: aqueous solubility (LC/MS- or HPLC-based assay). The class given is physicochemical. The settings on record: aqueous solution (buffer not named), aqueous buffer, Example 2, at any given pH; read-out: solubility. The text has this:
Furthermore, to profile the properties of the piperazinyl-4(1H)-quinolones, and to identify potential limitations, aqueous solubility and lipophilicity log D were experimentally determined via LC/MS-based assays as described by the Manetsch laboratory previously^8,10,31,32 (Tables 9-12). Encouragingly, the piperazinyl-4(1H)-quinolones were much more soluble than the previously described phenoxyethoxy-4(1H)-quinolone analogues.^19 As expected, the solubility of all compounds was affected by pH, with better solubility under more acidic conditions.
In parallel to testing the compounds for in vitro antimalarial activity, a limited structure-property relationship (SPR) study focusing on log D and aqueous solubility was conducted to assess potential physiochemical liabilities (FIG. 22). […] For these reasons, physicochemical properties were not strongly considered as selection criteria for in vivo efficacy studies.

The subject of a further data set is Pb-infected mice. Briefly: in vivo efficacy scouting assay against blood stages. Set-up: species or system P. berghei; mice. The note with it: Example 2: two mice, single 50 mg/kg oral dose in PEG400 on day 1 PE. On the procedure: The screening involved a single oral 50 mg/kg dose 1 day post infection (PI) and an assessment of parasitemia on days 3 PI and 6 PI (Table 6).
The screening was performed by treating two infected mice with a single 50 mg/kg oral dose of test compound suspended in PEG400 on day 1 postexposure (PE) followed by assessing parasitemia on days 3 and 6 PE.

The mark [5] stands for this setting: Plasmodium falciparum, TM90, read-out: EC50 TM90-C2B (nM).
The mark [6] stands for this setting: Plasmodium falciparum, read-out: EC50 W2 (nM).
Setting [7] is: blood stage in vitro, strain W2.
The mark [8] stands for this setting: blood stage in vitro, atovaquone-resistant strain TM90-C2B.

A word on the EC50: it is the concentration that produces a half-maximal response. As usually defined, the solubility is the concentration that dissolves in the medium under given conditions.

Read-outs that look alike come from different tables or passages of the source.

With `CCCCc1cc2c(=O)c(C(=O)NC)c[nH]c2cc1OCCOc1ccccc1` [Compound 13a, 6-Butyl-N-methyl-4-oxo-7-(2-phenoxyethoxy)-1,4-dihydroquinoline-3-carboxamide], the 50% effective concentration (EC50) in data set [1] (setting [5]) is 3980 nM; in data set [2] (setting [6]) it was 13.3 nM.

Turning to `CCN(CC)CCCC(C)Nc1ccnc2cc(Cl)ccc12` (stereo not drawn) [CQ, Chloroquine, reference compound], the EC50 in the data set with J774 mammalian cells (J774, cytotoxicity, 96 well plate format, read-out: EC50 J774) was determined as 47.2 µM.

`CCCCc1cc2c(=O)c(C(=O)NC(C)C)c[nH]c2cc1OCCOc1ccccc1` [Compound 13e, 6-Butyl-N-isopropyl-4-oxo-7-(2-phenoxyethoxy)-1,4-dihydroquinoline-3-carboxamide]: the “EC50 W2 (nM)” value in data set [2] (setting [7]) is “completely inactive”.

On to `CCCCc1cc2c(=O)c(C(=O)O)c[nH]c2cc1OCCOc1ccccc1` [Compound 7b, 6-Butyl-4-oxo-7-(2-phenoxyethoxy)-1,4-dihydroquinoline-3-carboxylic Acid], for which the half-maximal effective concentration (EC50) in data set [1] (setting [5]) is 1110 nM; in data set [2] (setting [6]), 64 nM; in data set [3] (Plasmodium berghei), 0.267 nM.

Regarding `COC(=O)c1c[nH]c2ccc(OCc3ccccc3)cc2c1=O` [Compound 6e, Methyl 6-(Benzyloxy)-4-oxo-1,4-dihydroquinoline-3-carboxylate], the half-maximal effective concentration (EC50) is 1100 nM in data set [1] (setting [5]), 11.6 nM in data set [2] (setting [6]) and 127 nM in data set [3] (Plasmodium berghei).

As for `CCCCc1cc2c(=O)c(C(=O)NCCO)c[nH]c2cc1OCCOc1ccccc1` [Compound 13d, 6-Butyl-N-(2-hydroxyethyl)-4-oxo-7-(2-phenoxyethoxy)-1,4-dihydroquinoline-3-carboxamide], the solubility in data set [4] is above 20 µM.

As for `COC(=O)c1c[nH]c2ccccc2c1=O` [Compound 6d, Methyl 4-Oxo-1,4-dihydroquinoline-3-carboxylate], the “EC50 TM90-C2B (nM)” value in data set [1] (setting [8]) is “devoid of any activity”. In addition, the “EC50 W2 (nM)” value in data set [2] (setting [7]) is “retained respectable potency”.

Compound `COC(=O)c1c[nH]c2cc(OCCOc3ccccc3)c(OC)cc2c1=O` [Compound 6aa, Methyl 6-Methoxy-4-oxo-7-(2-phenoxyethoxy)-1,4-dihydroquinoline-3-carboxylate] yielded an RI in data set [1] of 1.60.

Turning to `Cc1[nH]c2cc(CN3CCN(c4ccc(C(F)(F)F)cc4)CC3)ccc2c(=O)c1Cl` [Compound 8ar, 3-Chloro-2-methyl-7-((4-(4-(trifluoromethyl)phenyl)piperazin-1-yl)methyl)quinolin-4(1H)-one], the concentration giving a half-maximal response (EC50) is 1510 nM in data set [1] (setting [5]); above 20 µM in the data set on J774 mammalian cells (J774, read-out: EC50 J774 (μM)); 139 nM in data set [2] (setting [6]). The RI in data set [1] is reported as 10.9.

With `CCCCc1cc2c(=O)c(C(=O)OCC)c[nH]c2cc1OCCOc1ccccc1` [Compound 6af, Ethyl 6-Butyl-4-oxo-7-(2-phenoxyethoxy)-1,4-dihydroquinoline-3-carboxylate], the EC50 in data set [2] (setting [6]) worked out at 0.143 nM. Further, the “EC50 Pb (nM)” value in data set [3] was “subnanomolar”.

For the compound `COC(=O)c1c[nH]c2cc(Cl)ccc2c1=O` [Compound 6l, Methyl 7-Chloro-4-oxo-1,4-dihydroquinoline-3-carboxylate], the “EC50 W2 (nM)” value in data set [2] (setting [7]) is given as “devoid of antimalarial activity”.

`CCCCc1cc2c(=O)c(I)c[nH]c2cc1OCCOc1ccccc1` [Compound 16b, 6-Butyl-3-iodo-7-(2-phenoxyethoxy)quinolin-4(1H)-one]: the EC50 in data set [1] (setting [5]) came to 6.04 nM; in data set [2] (setting [6]), 1.23 nM. Besides, the RI in data set [1] stood at 4.91.

As for `COC(=O)c1c[nH]c2ccc(OCCc3ccccc3)cc2c1=O` [Compound 6f, Methyl 4-Oxo-6-phenethoxy-1,4-dihydroquinoline-3-carboxylate], the “EC50 W2 (nM)” value in data set [2] (setting [7]) is recorded as “double-digit nM”.

Take “Methyl 6-methyl-4-oxo-7-(4-phenylpiperazin-1-yl)-1,4-dihydroquinoline-3-carboxylate [Compound 8c]”: the “EC50 TM90-C2B (nM)” value in data set [1] (setting [8]) is listed as “devoid of any activity”. Further, the “EC50 W2 (nM)” value in data set [2] (setting [7]) is given as “retained respectable potency”.

Consider “Methyl 4-oxo-7-(4-phenylpiperazin-1-yl)-1,4-dihydroquinoline-3-carboxylate [Compound 8a]”, for which the RI in data set [1] was around 1. Further, the “EC50 W2 (nM)” value in data set [2] (setting [7]) is “inhibition against W2 was lost”.

On to “Methyl 7-(4-benzylpiperazin-1-yl)-4-oxo-1,4-dihydroquinoline-3-carboxylate [Compound 8b]”, for which the RI in data set [1] was found to be 1.31. For the same compound, the half-maximal effective concentration (EC50) in data set [1] (blood stage in vitro, atovaquone-resistant strain TM90-C2B, read-out: EC50 TM90-C2B) worked out at 430 nM; in data set [2] (blood stage in vitro, strain W2, read-out: EC50 W2), 328 nM; in data set [3], 5.82 nM.

For `COC(=O)c1c[nH]c2cc(OCCOc3ccccc3)c(Cl)cc2c1=O` [Compound 6ab, Methyl 6-Chloro-4-oxo-7-(2-phenoxyethoxy)-1,4-dihydroquinoline-3-carboxylate], the concentration giving a half-maximal response (EC50) amounted to 617 nM in data set [1] (setting [5]), 9.93 nM in data set [2] (setting [6]) and 0.063 nM in data set [3] (Plasmodium berghei).

Take `CCCCc1cc2c(=O)c(Br)c[nH]c2cc1OCCOc1ccccc1` [Compound 16d, 3-Bromo-6-butyl-7-(2-phenoxyethoxy)quinolin-4(1H)-one]: the figures for the concentration for a half-maximal effect (EC50) in data set [1] (setting [5]) and in data set [2] (setting [6]) were 48.7 nM and 4.64 nM, respectively.

On to `COC(=O)c1c[nH]c2cc(OCCOc3ccccc3)c(Br)cc2c1=O` [Compound 6z, Methyl 6-Bromo-4-oxo-7-(2-phenoxyethoxy)-1,4-dihydroquinoline-3-carboxylate], for which the figures for the concentration for a half-maximal effect (EC50) in data set [1] (setting [5]), in data set [2] (setting [6]) and in data set [3] (Plasmodium berghei) were 847 nM, 4.47 nM and 0.336 nM, respectively.

For `COC(=O)c1c[nH]c2cc(F)ccc2c1=O` [Compound 6n, Methyl 7-Fluoro-4-oxo-1,4-dihydroquinoline-3-carboxylate], the EC50 in data set [1] (setting [5]) is 395 nM; in data set [2] (setting [6]) it was 26.2 nM.

On to `COC(=O)c1c[nH]c2ccc(-c3ccccc3)cc2c1=O` [Compound 6u, Methyl 4-Oxo-6-phenyl-1,4-dihydroquinoline-3-carboxylate], for which the “EC50 W2 (nM)” value in data set [2] (setting [7]) was “devoid of activity”.

In the case of `CCCCc1cc2c(=O)c(Cl)c(C)[nH]c2cc1OCCOc1ccccc1` [Compound 16e, 6-Butyl-3-chloro-2-methyl-7-(2-phenoxyethoxy)quinolin-4(1H)-one], the EC50 turned out to be 67.7 nM in data set [1] (setting [5]) and 6.92 nM in data set [2] (setting [6]). The compound further showed an RI in data set [1] of 9.79.

Turning to `C[C@H]1[C@@H](O)O[C@@H]2O[C@@]3(C)CC[C@H]4[C@H](C)CC[C@@H]1[C@@]24OO3` [DHA, dihydroartemisinin, reference compound], the half-maximal effective concentration (EC50) in the data set on J774 mammalian cells (J774, read-out: EC50 J774 (μM)) came out at 1.53 µM.

For `Cc1[nH]c2cc(CN3CCN(c4ccc(C(F)(F)F)cc4)CC3)ccc2c(=O)c1Br` [Compound 8aq, 3-Bromo-2-methyl-7-((4-(4-(trifluoromethyl)phenyl)piperazin-1-yl)methyl)quinolin-4(1H)-one], the concentration for a half-maximal effect (EC50) is 95.4 nM in data set [1] (setting [5]); above 20 µM in the data set on J774 mammalian cells (J774, read-out: EC50 J774 (μM)); 121 nM in data set [2] (setting [6]). In data set [1], this compound displayed an RI of 0.79.

On to `CCCCc1cc2c(=O)c(C(C)=O)c[nH]c2cc1OCCOc1ccccc1` [Compound 6ag, 3-Acetyl-6-butyl-7-(2-phenoxyethoxy)quinolin-4(1H)-one], for which the EC50 in data set [2] (setting [6]) came out at 9.67 nM.

For `CCCCc1ccc2[nH]cc(C(=O)OC)c(=O)c2c1` [Compound 6c, Methyl 6-Butyl-4-oxo-1,4-dihydroquinoline-3-carboxylate], the figures for the EC50 in data set [1] (setting [5]), in data set [2] (setting [6]) and in data set [3] (Plasmodium berghei) were 222 nM, 1.58 nM and 0.819 nM, respectively. In data set [1], this compound registered an RI of 141. Also, the “EC50 Pb (nM)” value in data set [3] is “subnanomolar”.

In the case of `COC(=O)c1c[nH]c2ccc(OCCCc3ccccc3)cc2c1=O` [Compound 6g, Methyl 4-Oxo-6-(3-phenylpropoxy)-1,4-dihydroquinoline-3-carboxylate], in the data set with Pb-infected mice, the “% inhibition on day 6 PE” value was “lack of significant parasitemia reduction”. The “EC50 W2 (nM)” value in data set [2] (setting [7]) is “double-digit nM”.

On to `CCCCc1cc2c(=O)c(C#N)c[nH]c2cc1OCCOc1ccccc1` [Compound 6ad, 6-Butyl-4-oxo-7-(2-phenoxyethoxy)-1,4-dihydroquinoline-3-carbonitrile], for which the “EC50 W2 (nM)” value in data set [2] (setting [7]) is “high double-digit nM range”.

Regarding `COc1cc2c(=O)c(Br)c(C)[nH]c2cc1CN1CCN(c2ccc(C(F)(F)F)cc2)CC1` [Compound 8at, 3-Bromo-6-methoxy-2-methyl-7-((4-(4-(trifluoromethyl)phenyl)piperazin-1-yl)methyl)quinolin-4(1H)-one], the half-maximal effective concentration (EC50) in data set [1] (setting [5]) is above 5000 nM; with J774 mammalian cells (J774, read-out: EC50 J774 (μM)), above 20 µM; in data set [2] (setting [6]) it was 128 nM. Besides, the RI in data set [1] is reported as above 39.1.

Take `COC(=O)c1c[nH]c2cc(-c3ccccc3)ccc2c1=O` [Compound 6m, Methyl 4-Oxo-7-phenyl-1,4-dihydroquinoline-3-carboxylate]: the “EC50 W2 (nM)” value in data set [2] (setting [7]) was “devoid of antimalarial activity”.

These data come from patent US10000452B1, “Quinolone-based compounds, formulations, and uses thereof” (University of South Florida, priority 2016, dated 2018).
